Entries after “also recorded” stand apart in the source; their conditions may differ.
Test system: U-937 blood cancer cell line
Assay: MTT in vitro cytotoxicity assay
Type: cell-based
Conditions: U-937, MTT assay
Method: For cytotoxicity assays, the anti-cancer compounds were prepared as a stock solution, to suit a universal 96 well plate map, at different concentrations in μM, and dissolved in DMSO dH2O. Working solutions were prepared in the culture medium and added to the wells 24 hours after seeding of 5 to 7×10^3 cells per well in 200 μL of fresh culture medium. DMSO (1%)/dH2O was used as the solvent control. The DMSO concentration was maintained at a concentration less than 1% (i.e., a non-toxic concentration). Microscopic cytological changes were monitored and photographed following exposure to different concentrations of the compounds for 24 and 48 hours using an inverted microscope. After the respective periods of treatment, plates were centrifuged and washed with fresh growth medium. Then, 20 μL of MTT solution [5 mg/mL in phosphate-buffered saline (PBS)] was added to each well, and the plates were wrapped with aluminum foil and incubated overnight at 37° C. The plates were centrifuged and the supernatants were removed carefully […]. The purple formazan product was dissolved in 100 μL of 100% DMSO. The absorbance was monitored at 570 nm (measurement) and 630 nm (reference) using a 96 well plate reader. Data were collected for four replicates each and used to calculate the median effect dose or concentration; i.e., IC50. […]

Substance | cytotoxicity (in words) (24 and 48 hours) | IC50 (24 hour incubation time, read-out: IC50 = concentration of drug required to inhibit growth of 50% of the cancer cells) [µM]
5′-benzyl-4′-(p-tolyl)-5-(trifluoromethoxy)spiro[3,2′]oxindolopyrrolidino-4′-(methylphenyl)-1″-styryl-5-benzylidene-spiro[3′.3″]piperidi-4″-one [Compound 4i] | most cytotoxic compound; also recorded: excellent cytotoxicity effects at the lowest concentrations | 
bleomycin [reference compound] |  | 16.2 ± 4.5

From patent US9486444B1, “Anti-cancer compound” (KING SAUD UNIVERSITY, priority 2016, dated 2016)
